Reference: patent US20040053857A1, “Glycoalkaloid compositions and various uses thereof” (priority 2002, published 2004)

Assays:
Type in all cases: cell-based
LNCaP tumour cell line = assay: Dose per cell at LD50, 7500 cell six day assay; settings: 7500 cells, dose per cell limiting
Excerpt: (§1) Tumour cell line LNCaP was used at 7500 cells in a six day assay format while 786-O was used in a 650 cell, six day format where dose per cell is not a limiting factor determining LD50 as well as in 5000 cell, three day format where dose per cell does limit LD50.

A2058 tumour cell line = assay: Dose per cell at LD50, 5000 cell six day assay; settings: A2058, 5000 cells, dose per cell limiting
Excerpt: (§2) Tumour cell lines A2058, NO36 and LS174T and the normal adult dermal fibroblast line NHDF-Ad were used in 5000 cell, six day assays to compare dose per cell at LD50 values for BEC (1:1 solamargine:solasonine), solamargine, solasonine and an equimolar mixture of solamargine and solasonine. Data from the fibroblast cell line NHRE in a 2500 cell 3 day assay was also obtained.

LS174T tumour cell line = assay: Dose per cell at LD50, 5000 cell six day assay; settings: 5000 cells, dose per cell limiting
Excerpt: as §2

[1] = system: NHDF-Ad normal adult dermal fibroblast line; assay: Dose per cell at LD50, 5000 cell six day assay; settings: NHDF-Ad normal cells, 5000 cells, dose per cell limiting
Excerpt: as §2

NO36 tumour cell line [2] = assay: Dose per cell at LD50, 5000 cell six day assay; settings: NO36, 5000 cells, dose per cell limiting
Excerpt: as §2

786-O tumour cell line [3] = assay: Dose per cell at LD50, 5000 cell three day format (dose per cell limiting); settings: 5000 cells
Excerpt: as §1

[4] = system: NHRE fibroblast cell line; assay: Dose per cell at LD50, 2500 cell 3 day assay; settings: NHRE normal cells, 2500 cells, dose per cell limiting
Excerpt: as §2

786-O tumour cell line [5] = assay: Dose per cell at LD50, 650 cell six day format (dose per cell not limiting); settings: 650 cells
Excerpt: as §1

786-O tumour cell line [6] = assay: Effect of solamargine:solasonine ratio on cytotoxicity, MTT cell proliferation assay; settings: 3 day assay, 5000 cells
Description: (§3) Tumour cell lines 786-O and NO36 and normal fibroblasts NHDF-Ad were used in 5000 cell assays, for three, six and six day assays, respectively, to study the effect of solamargine:solasonine ratio on cytotoxicity.
(§4) Solutions of 4 mg/mL solamargine and 4 mg/mL solasonine in 3% acetic acid were mixed to provide the various ratios. These mixtures were diluted in the culture medium appropriate to the cell line used to concentrations ranging from 0.32 to 40 ug/mL. Fifty uL aliquots were added to tissue culture wells seeded with 5000 cells in 150 uL culture medium 24 hours previously.
(§5) Cell survival was assessed using the MTT cell proliferation assay following four days growth after application of the alkaloids. The formazan absorbance of alkaloid treated wells relative to wells treated with an equivalently dilute acetic acid solution expressed as a percentage has been taken as percentage cell survival.

[7] = system: NHDF-Ad normal fibroblasts; assay: as above; settings: 6 day assay, 5000 cells
Description: as §3, §4, §5

NO36 tumour cell line [8] = assay: as above; settings: NO36, 6 day assay, 5000 cells
Description: as §3, §4, §5

Compound	Dose per cell at LD50, pg/cell of total alkaloid (LNCaP tumour cell line) [pg/cell]	Dose per cell at LD50, pg/cell of total alkaloid (A2058 tumour cell line) [pg/cell]	Dose per cell at LD50, pg/cell of total alkaloid (LS174T tumour cell line) [pg/cell]	Dose per cell at LD50, pg/cell of total alkaloid [1] [pg/cell]	Dose per cell at LD50, pg/cell of total alkaloid (NO36 tumour cell line [2]) [pg/cell]	Dose per cell at LD50, pg/cell of total alkaloid (786-O tumour cell line [3]) [pg/cell]	Dose per cell at LD50, pg/cell of total alkaloid [4] [pg/cell]	Dose per cell at LD50, pg/cell of total alkaloid (786-O tumour cell line [5]) [pg/cell]	Dose per cell at LD50, (786-O tumour cell line [6]) [pg]	Dose per cell at LD50, [7] [pg]	Dose per cell at LD50, (NO36 tumour cell line [8]) [pg]
C[C@@H]1CC[C@@]2(NC1)O[C@H]1C[C@H]3[C@@H]4CC=C5C[C@@H](O[C@@H]6O[C@H](CO)[C@@H](O[C@@H]7O[C@@H](C)[C@H](O)[C@@H](O)[C@H]7O)[C@H](O)[C@H]6O[C@@H]6O[C@@H](C)[C@H](O)[C@@H](O)[C@H]6O)CC[C@]5(C)[C@H]4CC[C@]3(C)[C@H]1[C@@H]2C [Solamargine, solamargine]	121.9	199.0	162.8	209.2	154.8	208.0	227.9	1394.0	304	112	209
C[C@@H]1CC[C@@]2(NC1)O[C@H]1C[C@H]3[C@@H]4CC=C5C[C@@H](O[C@@H]6O[C@H](CO)[C@H](O)[C@H](O[C@@H]7O[C@H](CO)[C@@H](O)[C@H](O)[C@H]7O)[C@H]6O[C@@H]6O[C@@H](C)[C@H](O)[C@@H](O)[C@H]6O)CC[C@]5(C)[C@H]4CC[C@]3(C)[C@H]1[C@@H]2C [Solasonine, solasonine]	432.5	685	>400	587.6	613.2	>400	1657.7	5606.0	500	400	613
